Source: patent US20250289787A1, “HERBICIDAL 2-OXO-NICOTINIC ACID DERIVATIVES” (SYNGENTA CROP PROTECTION AG, priority 2022, published 2025)

Experiments:
Type in all cases: in vivo
Design in all cases: key: 5=81-100%; 4=61-80%; 3=41-60%; 2=21-40%; 1=1-20%; 0=no damage to the plant; -=not tested
[1] = tested on: Amaranthus palmeri (AMAPA); test: Pre-emergence test, herbicidal damage; details: 1000 g/ha unless otherwise stated, evaluated after 13 days, five-point scale
[2] = tested on: Amaranthus retoflexus (AMARE); test: Pre-emergence test, herbicidal damage; details: 1000 g/ha unless otherwise stated, evaluated after 13 days, five-point scale
[3] = tested on: Echinochloa crus-galli (ECHCG); test: Pre-emergence test, herbicidal damage; details: 1000 g/ha unless otherwise stated, evaluated after 13 days, five-point scale
Zea mays (ZEAMX) [4] = test: Pre-emergence test, herbicidal damage; details: 1000 g/ha unless otherwise stated, evaluated after 13 days, five-point scale
[5] = tested on: Ipomoea hederacea (IPOHE); test: Pre-emergence test, herbicidal damage; details: 1000 g/ha unless otherwise stated, evaluated after 13 days, five-point scale
Setaria faberi (SETFA) [6] = test: Pre-emergence test, herbicidal damage; details: 1000 g/ha unless otherwise stated, evaluated after 13 days, five-point scale
[7] = tested on: Amaranthus palmeri (AMAPA); test: Post-emergence test, herbicidal damage; details: sprayed after 8 days cultivation, 1000 g/ha unless otherwise stated, evaluated after 13 days, five-point scale
Protocol: (§1) Seeds of a variety of test species are sown in standard soil in pots Amaranthus palmeri (AMAPA), (Amaranthus retoflexus (AMARE), Echinochloa crus-galli (ECHCG), Zea mays (ZEAMX), Ipomoea 5 hederacea (IPOHE), and Setaria faberi (SETFA). After 8 days cultivation under controlled conditions in a glasshouse (at 24° C./16° C., day/night; 14 hours light; 65% humidity), the plants are sprayed with an aqueous spray solution derived from the formulation of the technical active ingredient in acetone/water (50:50) solution containing 0.5% Tween 20 (polyoxyethelyene sorbitan monolaurate, CAS RN 9005-64-5). Compounds are applied at 1000 g/ha unless otherwise stated. The test plants are then grown in a glasshouse under controlled conditions in a glasshouse (at 24° C./16° C., day/night; 14 hours light; 65% humidity) and watered twice daily. After 13 days the test is evaluated for the percentage damage caused to the plant. The biological activities are shown in the following table on a five-point scale (5=81-100%; 4=61-80%; 3=41-60%; 2=21-40%; 1=1-20%; 0=no damage to the plant; -=not tested).

[8] = tested on: Amaranthus retoflexus (AMARE); test: Post-emergence test, herbicidal damage; details: sprayed after 8 days cultivation, 1000 g/ha unless otherwise stated, evaluated after 13 days, five-point scale
Protocol: as §1

[9] = tested on: Echinochloa crus-galli (ECHCG); test: Post-emergence test, herbicidal damage; details: sprayed after 8 days cultivation, 1000 g/ha unless otherwise stated, evaluated after 13 days, five-point scale
Protocol: as §1

[10] = tested on: Ipomoea hederacea (IPOHE); test: Post-emergence test, herbicidal damage; details: sprayed after 8 days cultivation, 1000 g/ha unless otherwise stated, evaluated after 13 days, five-point scale
Protocol: as §1

Setaria faberi (SETFA) [11] = test: Post-emergence test, herbicidal damage; details: sprayed after 8 days cultivation, 1000 g/ha unless otherwise stated, evaluated after 13 days, five-point scale
Protocol: as §1

Zea mays (ZEAMX) [12] = test: Post-emergence test, herbicidal damage; details: sprayed after 8 days cultivation, 1000 g/ha unless otherwise stated, evaluated after 13 days, five-point scale
Protocol: as §1

| Compound | percentage damage caused to the plant, AMAPA [1] | percentage damage caused to the plant, AMARE [2] | percentage damage caused to the plant, ECHCG [3] | percentage damage caused to the plant, ZEAMX (Zea mays (ZEAMX) [4]) | percentage damage caused to the plant, IPOHE [5] | percentage damage caused to the plant, SEFTA (Setaria faberi (SETFA) [6]) | percentage damage caused to the plant, AMAPA [7] | percentage damage caused to the plant, AMARE [8] | percentage damage caused to the plant, ECHCG [9] | percentage damage caused to the plant, IPOHE [10] | percentage damage caused to the plant, SEFTA (Setaria faberi (SETFA) [11]) | percentage damage caused to the plant, ZEAMX (Zea mays (ZEAMX) [12]) |
| --- | --- | --- | --- | --- | --- | --- | --- | --- | --- | --- | --- | --- |
| Cc1cc(-c2ccc(Cl)c(Cl)c2)c(C(=O)O)c(=O)n1-c1cccc(C(F)(F)F)c1F [Compound 17, 4-(3,4-dichlorophenyl)-1-[2-fluoro-3-(trifluoromethyl)phenyl]-6-methyl-2-oxo-pyridine-3-carboxylic acid] | 0 | 0 | 0 | 0 | 0 | 0 | 2 (2=21-40%) | 1 (1=1-20%) | 0 | 0 | 1 (1=1-20%) | 0 |
| Cc1cc(-c2ccc(Cl)c(Cl)c2)c(C(=O)O)c(=O)n1-c1ncc(Cl)cc1F [Compound 18, 1-(5-chloro-3-fluoro-2-pyridyl)-4-(3,4-dichlorophenyl)-6-methyl-2-oxo-pyridine-3-carboxylic acid] | 0 | 0 | 0 | 0 | 0 | 0 | 1 (1=1-20%) | 0 | 1 (1=1-20%) | 1 (1=1-20%) | 0 | 1 (1=1-20%) |
| Cc1cc(-c2ccc(Cl)c(Cl)c2)c(C(=O)O)c(=O)n1-c1ncc(Cl)cc1Cl [Compound 19, 4-(3,4-dichlorophenyl)-1-(3,5-dichloro-2-pyridyl)-6-methyl-2-oxo-pyridine-3-carboxylic acid] | 0 | 0 | 0 | 0 | 0 | 0 | 1 (1=1-20%) | 0 | 1 (1=1-20%) | 1 (1=1-20%) | 1 (1=1-20%) | 1 (1=1-20%) |
| Cc1c(Cl)c(-c2ccc(Cl)c(Cl)c2)c(C(=O)O)c(=O)n1-c1ccc(F)cc1 [Compound 20, 5-chloro-4-(3,4-dichlorophenyl)-1-(4-fluorophenyl)-6-methyl-2-oxo-pyridine-3-carboxylic acid] | 5 (5=81-100%) | 4 (4=61-80%) | 1 (1=1-20%) | 0 | 1 (1=1-20%) | 2 (2=21-40%) | 5 (5=81-100%) | 4 (4=61-80%) | 2 (2=21-40%) | 2 (2=21-40%) | 4 (4=61-80%) | 4 (4=61-80%) |
| Cc1cc(-c2ccc(Cl)c(Cl)c2)c(C(=O)O)c(=O)n1Cc1ccc(Cl)cc1F [Compound 22, 1-[(4-chloro-2-fluoro-phenyl)methyl]-4-(3,4-dichlorophenyl)-6-methyl-2-oxo-pyridine-3-carboxylic acid] | 1 (1=1-20%) | 1 (1=1-20%) | 1 (1=1-20%) | 1 (1=1-20%) | 0 | 1 (1=1-20%) | 3 (3=41-60%) | 3 (3=41-60%) | 0 | 1 (1=1-20%) | 1 (1=1-20%) | 1 (1=1-20%) |
